{"source": "patent US20240373829A1", "about": "“GENETIC RESISTANCE TO VIRAL DISEASE IN SALMONID FISH” (THE UNIVERSITY COURT OF THE UNIVERSITY OF EDINBURGH, priority 2021, published 2024)", "key": {"[1]": {"tested_on": "DNA and RNA viruses", "details": "in vitro, multitude of DNA and RNA viruses (ref 15); cited from earlier work"}, "[2]": {"tested_on": "IPNV", "assay": "Supernatant infectivity assay (TCID50) of MLN4924 and IPNV-treated RTG-2 cells", "assay_type": "cell-based, infectious pancreatic necrosis virus", "description": "Wild type RTG-2 cells were seeded in 4× quadruplicates in 24-well plates and were allowed to settle for 24 hours. The four quadruplicates were then treated with DMSO-only, 0.1, 1 and 5 uM of MLN4924, respectively. 24 hours after the MLN4924 treatment, the inhibitor inoculum was removed and IPNV in a dose of 10-5 TCID50/mL was inoculated in the cells, along with the four doses of MLN4924. Supernatants were collected at 48 and 72 hpi, and were stored at −80° C. until use.\nTCID50 (Median Tissue Culture Infectious Dose) assay was used to assess the titer of the viral supernatants, harvested from the MLN4924 and IPNV-treated cells at 72 hpi. Firstly, 20,000 cells/well were seeded in wells of a 96-well plate (in four rows of 10 wells for each supernatant, for 4 replicates) and were allowed to settle and grow overnight. The following day, the media was removed with a multichannel pipette and replaced with serial 10-fold dilutions (starting from the neat original viral supernatants up to 10^−7 dilution). The latter were prepared in 2% FBS media (with penicillin streptomycin). The seeded cells were inoculated with these serial dilutions (four replicates per virus dilution, 100 uL/96-well). The last two wells of each row were used as controls, meaning that no virus was added there, only media. The 96-well plate was incubated at 15° C. for the duration of the experiment. The Cytopathic Effect (CPE) of the viral infection was assessed using CellTiter-Glo® Luminescent Cell Viability Assay (Promega, Madison, USA), at 30 hpi. The 50% endpoint titer was further calculated using the Reed and Muench method^16.\nMLN4924 inhibitor was used to inhibit nae1 activity. Four supernatants of each dose group collected from the MLN4924 and IPNV-treated cells at 72 hpi were tested in two independent TCID50 infectivity assays followed by a cell viability assay at 30 hpi and use of the Reed and Muench method to analyze the cytopathic effect present in the wells."}, "[3]": {"tested_on": "IPNV", "assay": "IPNV viral load (VP2 qRT-PCR) in MLN4924-treated SHK-1 cells", "assay_type": "cell-based, infectious pancreatic necrosis virus", "details": "100 nM MLN4924 24 hours prior to infection, during the course of infection, vs DMSO only", "description": "To evaluate the viral load in cells, relative transcript level of IPNV VP2 to ef1a in the total RNAs was analysed by qRT-PCR using Luna Universal One-Step RT-qPCR reagent (NEB, Ipswich, USA) and LightCycler 480 Instrument (Roche, Basel, Switzerland) in duplicates. Each reaction consisted of 0.5 μL RNAs, 1× Reaction Mix, 1× Enzyme Mix, 0.4 μM each primer (Supplementary Table 4) and nuclease-free water up to 10 μL. The thermocycling initiated with reverse transcription at 55° C. for 10 min and initial denaturation at 95° C. for 1 min, followed by 40 cycles of denaturation at 95° C. for 10 sec and extension at 60° C. for 30 sec with plate read, and melt curve analysis. Efficiency and linearity (R^2) of each primer pair were checked using serial dilution of total RNAs in duplicates. The relative viral transcript level of IPNV VP2 versus ef1a in the KO SHK-1 cells compared to wild type SHK-1 cells at each timepoint was calculated using 2^−ΔΔCT.\nLyophilised MLN4924 (pevonedistat) was resuspended in DMSO. MLN4924 was titrated for cytotoxicity on CHSE-214 and SHK-1 cells. […] The impact of the MLN4924 on cell viability was assessed by sampling at 24, 48, 72, and 96 hpi and comparing cell survival in all challenged groups (including the DMSO control) versus the unchallenged control at the same timepoint."}, "[4]": {"tested_on": "SHK-1 cells", "assay": "MLN4924 cell viability in SHK-1 cells", "assay_type": "cell-based, Atlantic salmon", "details": "MLN4924 treatment compared to DMSO-treated controls", "description": "Lyophilised MLN4924 (pevonedistat) was resuspended in DMSO. MLN4924 was titrated for cytotoxicity on CHSE-214 and SHK-1 cells. SHK-1 or CHSE-214 cells were seeded at 80% confluency and treated with 0 (DMSO only), 100 nM, 1 μM or 5 μM MLN4924 for 24 hours prior to inoculation with IPNV at an MOI of 0.01. The impact of the MLN4924 on cell viability was assessed by sampling at 24, 48, 72, and 96 hpi and comparing cell survival in all challenged groups (including the DMSO control) versus the unchallenged control at the same timepoint."}, "[5]": {"tested_on": "RTG-2 cells", "assay": "MLN4924 cytotoxicity test (cell viability assay) in RTG-2 cells", "assay_type": "cell-based, rainbow trout (Oncorhynchus mykiss)", "details": "wild type RTG-2 cells; 0.1, 1 and 5 uM; 24, 48, 72 and 96 hours post treatment", "description": "Initially, four different concentrations of MLN4924 0 (DMSO-only), 0.1, 1 and 5 uM, were tested in fresh RTG-2 cells to investigate if they exerted toxicity in wild type RTG-2 cells. A cell viability assay was used to assess any present cytopathic effect at four different time points: 24, 48, 72 and 96 hours post treatment with the four different concentrations of the inhibitor."}, "[6]": {"tested_on": "IPNV viral proteins", "assay": "Western blot of IPNV viral proteins from MLN4924-treated SHK-1 cells", "assay_type": "cell-based, infectious pancreatic necrosis virus", "details": "SHK-1 cells treated with MLN4924 or DMSO, 120 h, MOI 0.01", "description": "To evaluate the infectivity of viral output, cells and supernatant were harvested at 120 hpi and assessed by TCID50 on naïve CHSE-214 cells. For semi-quantification of viral protein output, western blot against viral proteins was performed. At 120 hpi, supernatant from a 150 mm dishes containing SHK-1 cells treated with either 100 nM MLN4924 or DMSO for 24 hours before infection with IPNV at an MOI of 0.01 was collected, sterile filtered, and ultra-centrifuged at 22000 x g for 1 hour. The ultra-centrifuged virus pellet from the supernatant was resuspended in Laemmli buffer. The cell-associated virus was also analysed by harvesting cells in Laemmli buffer. These samples were separated by PAGE (4-15% Mini-Protean, BIORAD), transferred onto nitrocellulose membrane, and the viral protein was visualised using a monoclonal antibody that recognises all IPN viral proteins, and secondary LICOR antibodies."}}, "data": [{"smiles": "NS(=O)(=O)OC[C@@H]1C[C@@H](n2ccc3c(N[C@H]4CCc5ccccc54)ncnc32)C[C@@H]1O", "note": "[MLN4924]", "values": [{"measurement": "anti-viral activity", "setting": "[1]", "value": "broad-acting anti-viral activity"}, {"measurement": "productive IPNV viral output (TCID50)", "setting": "[2]; 0.1 μM MLN4924, 72 hpi supernatants", "value": "effect similar to the DMSO-only cell group"}, {"measurement": "productive IPNV viral output (TCID50)", "setting": "[2]; 1 μM MLN4924, 72 hpi supernatants, vs DMSO-only", "value": "marked drop"}, {"measurement": "productive IPNV viral output (TCID50)", "setting": "[2]; 5 μM MLN4924, 72 hpi supernatants, vs DMSO-only", "value": "marked drop"}, {"measurement": "IPNV RNA copy number", "setting": "[3]", "value": "little difference"}, {"measurement": "cell viability", "setting": "[4]", "value": "no associated decrease in cell viability"}, {"measurement": "cytotoxicity (cell viability assay)", "setting": "[5]", "value": "none of the doses were cytotoxic"}, {"measurement": "abundance of IPNV viral proteins (western blot)", "setting": "[6]", "value": "notable decrease"}]}]}
